Among the data in US20230295182A1, “SPIRO DERIVATIVES OF ALPHA-D-GALACTOPYRANOSIDES” (Idorsia Pharmaceuticals Ltd, priority 2020, published 2023) are IC50 values, retold here.

The target in one test is human Gal-3 (hGal-3) (Homo sapiens (Human), UniProt P17931). Nature of the test: Competitive binding assay: biotinylated hGal-3 to microplate-adsorbed asialofetuin (ASF). As to conditions: Activity on hGal-3; binding to ASF-coated plates, 3 hours at 4° C.; mean values. The procedure, abridged:
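Biotinylated hGal-3 (300-1000 ng/mL) binding to plate-adsorbed asialofetuin, with DMSO-diluted compound added, incubated 3 h at 4 °C. After washing, bound protein detected with streptavidin-peroxidase (80 ng/mL, 1 h, 4 °C) and ABTS substrate, read spectrophotometrically. IC50 given as mean of several measurements.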

The next test deals with human Gal-1 (hGal-1) (Homo sapiens, UniProt P09382). In words: Competitive binding assay: biotinylated hGal-1 to microplate-adsorbed asialofetuin (ASF). As to conditions: Activities on hGal-1; binding to ASF-coated plates, 3 hours at 4° C.; mean values; read-out: Gal-1 IC50. Summed up:
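Plate-adsorbed asialofetuin is incubated 3 h at 4 °C with biotinylated hGal-1, optionally its all-serine-substituted cysteine variant, plus compound dilutions. ABTS color after 1 h streptavidin-peroxidase (80 ng/mL) at 4 °C reports binding. Reported IC50 is a mean across repeat runs.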

human Gal-1 (hGal-1), sequence (P09382 2-135 limits assumed): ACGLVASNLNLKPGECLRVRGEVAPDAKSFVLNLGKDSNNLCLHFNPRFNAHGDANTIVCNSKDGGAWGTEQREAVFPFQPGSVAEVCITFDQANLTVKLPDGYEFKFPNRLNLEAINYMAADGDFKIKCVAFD
human Gal-3 (hGal-3), sequence (P17931 whole entry): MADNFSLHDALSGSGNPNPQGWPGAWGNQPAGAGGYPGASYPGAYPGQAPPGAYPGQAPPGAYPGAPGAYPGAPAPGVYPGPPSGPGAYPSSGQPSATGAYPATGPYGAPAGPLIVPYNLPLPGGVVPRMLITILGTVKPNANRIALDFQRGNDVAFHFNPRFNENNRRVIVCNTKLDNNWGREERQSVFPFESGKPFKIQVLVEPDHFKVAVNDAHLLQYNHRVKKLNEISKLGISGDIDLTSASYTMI

With `Cc1ccc(-c2cn([C@H]3[C@@H](O)[C@@H](CO)O[C@H](CC4=NOC5(CCCCC5)C4)[C@@H]3OCC(=O)O)nn2)c(F)c1F` [Example 2.25, 2-(((2R,3R,4S,5R,6R)-2-((1-oxa-2-azaspiro[4.5]dec-2-en-3-yl)methyl)-4-(4-(2,3-difluoro-4-methylphenyl)-1H-1,2,3-triazol-1-yl)-5-hydroxy-6-(hydroxymethyl)tetrahydro-2H-pyran-3-yl)oxy)acetic acid], the IC50 (commonly the concentration needed to halve the response being measured) came to 37 nM at human Gal-3 (hGal-3) and 3700 nM at human Gal-1 (hGal-1).

Turning to `O=C(O)CO[C@@H]1[C@@H](n2cc(-c3cc(F)c(F)c(F)c3)nn2)[C@@H](O)[C@@H](CO)O[C@@H]1CC1=NOC2(CCCCC2)C1` [Example 2.26, 2-(((2R,3R,4S,5R,6R)-2-((1-oxa-2-azaspiro[4.5]dec-2-en-3-yl)methyl)-5-hydroxy-6-(hydroxymethyl)-4-(4-(3,4,5-trifluorophenyl)-1H-1,2,3-triazol-1-yl)tetrahydro-2H-pyran-3-yl)oxy)acetic acid], the figures for the IC50 on human Gal-3 (hGal-3) and at human Gal-1 (hGal-1) were 90 nM and 3500 nM, respectively.

As to `CO[C@@H]1[C@@H](n2cc(-c3cc(F)c(F)c(F)c3)nn2)[C@@H](O)[C@@H](CO)O[C@@H]1CC1=NOC2(CCN(C(=O)NC(C)(C)C)CC2)C1` [Example 2.28, N-(tert-butyl)-3-(((2R,3R,4S,5R,6R)-5-hydroxy-6-(hydroxymethyl)-3-methoxy-4-(4-(3,4,5-trifluorophenyl)-1H-1,2,3-triazol-1-yl)tetrahydro-2H-pyran-2-yl)methyl)-1-oxa-2,8-diazaspiro[4.5]dec-2-ene-8-carboxamide], the values for the IC50 on human Gal-3 (hGal-3) and on human Gal-1 (hGal-1) were 140 nM and 1700 nM, respectively.

In the case of `CO[C@@H]1[C@@H](n2cc(-c3cc(F)c(F)c(F)c3)nn2)[C@@H](O)[C@@H](CO)O[C@@H]1CC1=NOC2(CCN(C)CC2)C1` [Example 2.29, (2R,3R,4S,5R,6R)-2-(hydroxymethyl)-5-methoxy-6-((8-methyl-1-oxa-2,8-diazaspiro[4.5]dec-2-en-3-yl)methyl)-4-(4-(3,4,5-trifluorophenyl)-1H-1,2,3-triazol-1-yl)tetrahydro-2H-pyran-3-ol], the results for the IC50 at human Gal-3 (hGal-3) and on human Gal-1 (hGal-1) were 380 nM and 4800 nM, respectively.

For `CO[C@@H]1[C@@H](n2cc(-c3cc(F)c(F)c(F)c3)nn2)[C@@H](O)[C@@H](CO)O[C@@H]1CC1=NOC2(CCN(C(C)=O)CC2)C1` [Example 2.30, 1-(3-(((2R,3R,4S,5R,6R)-5-hydroxy-6-(hydroxymethyl)-3-methoxy-4-(4-(3,4,5-trifluorophenyl)-1H-1,2,3-triazol-1-yl)tetrahydro-2H-pyran-2-yl)methyl)-1-oxa-2,8-diazaspiro[4.5]dec-2-en-8-yl)ethan-1-one], the IC50 on human Gal-3 (hGal-3) was found to be 280 nM; at human Gal-1 (hGal-1), 2800 nM.

Regarding `CO[C@@H]1[C@@H](n2cc(-c3cc(F)c(F)c(F)c3)nn2)[C@@H](O)[C@@H](CO)O[C@@H]1CC1=NOC2(CCN(S(C)(=O)=O)CC2)C1` [Example 2.31, (2R,3R,4S,5R,6R)-2-(hydroxymethyl)-5-methoxy-6-((8-(methylsulfonyl)-1-oxa-2,8-diazaspiro[4.5]dec-2-en-3-yl)methyl)-4-(4-(3,4,5-trifluorophenyl)-1H-1,2,3-triazol-1-yl)tetrahydro-2H-pyran-3-ol], the IC50 at human Gal-3 (hGal-3) came out at 530 nM; at human Gal-1 (hGal-1), 3500 nM.

Take `CO[C@@H]1[C@@H](n2cc(-c3cc(F)c(F)c(F)c3)nn2)[C@@H](O)[C@@H](CO)O[C@@H]1CN1CC2(CCN(C(=O)OC(C)(C)C)CC2)OC1=O` [Example 3.01, tert-butyl 3-(((2R,3R,4S,5R,6R)-5-hydroxy-6-(hydroxymethyl)-3-methoxy-4-(4-(3,4,5-trifluorophenyl)-1H-1,2,3-triazol-1-yl)tetrahydro-2H-pyran-2-yl)methyl)-2-oxo-1-oxa-3,8-diazaspiro[4.5]decane-8-carboxylate]: the IC50 on human Gal-3 (hGal-3) came to 120 nM; on human Gal-1 (hGal-1), 2700 nM.

Take `CO[C@@H]1[C@@H](n2cc(-c3ccc(C)c(F)c3F)nn2)[C@@H](O)[C@@H](CO)O[C@@H]1CN1CC2(CCCCC2)OC1=O` [Example 3.02, 3-(((2R,3R,4S,5R,6R)-4-(4-(2,3-difluoro-4-methylphenyl)-1H-1,2,3-triazol-1-yl)-5-hydroxy-6-(hydroxymethyl)-3-methoxytetrahydro-2H-pyran-2-yl)methyl)-1-oxa-3-azaspiro[4.5]decan-2-one]: the IC50 at human Gal-3 (hGal-3) was found to be 36 nM; on human Gal-1 (hGal-1), 1400 nM.

Consider `CO[C@@H]1[C@@H](n2cc(-c3ccc(C)c(F)c3F)nn2)[C@@H](O)[C@@H](CO)O[C@@H]1CN1CC2(CCOCC2)OC1=O` [Example 3.03, 3-(((2R,3R,4S,5R,6R)-4-(4-(2,3-difluoro-4-methylphenyl)-1H-1,2,3-triazol-1-yl)-5-hydroxy-6-(hydroxymethyl)-3-methoxytetrahydro-2H-pyran-2-yl)methyl)-1,8-dioxa-3-azaspiro[4.5]decan-2-one], for which the IC50 on human Gal-3 (hGal-3) came out at 90 nM; at human Gal-1 (hGal-1), 2300 nM.

Turning to `CO[C@@H]1[C@@H](n2cc(-c3ccc(Cl)c(F)c3F)nn2)[C@@H](O)[C@@H](CO)O[C@@H]1CN1CC2(CCCCC2)CNC1=O` [Example 4.02, 2-(((2R,3R,4S,5R,6R)-4-(4-(4-chloro-2,3-difluorophenyl)-1H-1,2,3-triazol-1-yl)-5-hydroxy-6-(hydroxymethyl)-3-methoxytetrahydro-2H-pyran-2-yl)methyl)-2,4-diazaspiro[5.5]undecan-3-one], the IC50 was found to be 74 nM at human Gal-3 (hGal-3) and 400 nM at human Gal-1 (hGal-1).

In the case of `CO[C@@H]1[C@@H](n2cc(-c3ccc(C)c(F)c3F)nn2)[C@@H](O)[C@@H](CO)O[C@@H]1CN1CC2(CCCCC2)N=C1C` [Example 4.03, (2R,3R,4S,5R,6R)-4-(4-(2,3-difluoro-4-methylphenyl)-1H-1,2,3-triazol-1-yl)-2-(hydroxymethyl)-5-methoxy-6-((2-methyl-1,3-diazaspiro[4.5]dec-1-en-3-yl)methyl)tetrahydro-2H-pyran-3-ol], the IC50 at human Gal-3 (hGal-3) is 74 nM; on human Gal-1 (hGal-1), 1700 nM.

With `CO[C@@H]1[C@@H](n2cc(-c3ccc(C)c(F)c3F)nn2)[C@@H](O)[C@@H](CO)O[C@@H]1CN1C=NC2(CCCCC2)C1` [Example 4.04, (2R,3R,4S,5R,6R)-6-((1,3-diazaspiro[4.5]dec-1-en-3-yl)methyl)-4-(4-(2,3-difluoro-4-methylphenyl)-1H-1,2,3-triazol-1-yl)-2-(hydroxymethyl)-5-methoxytetrahydro-2H-pyran-3-ol], the concentration for half-maximal inhibition (IC50) is 81 nM on human Gal-3 (hGal-3) and 1300 nM at human Gal-1 (hGal-1).

Consider “(2R,3R,4S,5R,6R)-6-((8,8-difluoro-1-oxa-2-azaspiro[4.5]dec-2-en-3-yl)methyl)-4-(4-(2,3-difluoro-4-methylphenyl)-1H-1,2,3-triazol-1-yl)-2-(hydroxymethyl)-5-methoxytetrahydro-2H-pyran-3-ol [Example 2.27]”, for which the half-maximal inhibitory concentration (IC50) came to 81 nM on human Gal-3 (hGal-3) and 11500 nM at human Gal-1 (hGal-1).
